According to ChEMBL document CHEMBL4619753, “Treating Cancer by Spindle Assembly Checkpoint Abrogation: Discovery of Two Clinical Candidates, BAY 1161909 and BAY 1217389, Targeting MPS1 Kinase” (J Med Chem, 2020):

Tests used:
[1] = Lipophilicity, LogD of compound at pH 7.5 by reverse phase HPLC analysis; assay type: physicochemical; settings: buffer
[2] = Aqueous solubility of the compound; assay type: physicochemical; settings: buffer
[3] = system: HeLa; assay: cells; settings: Homo sapiens, 96 h
Description: Antiproliferative activity against human HeLa cells after 96 hrs by crystal violet staining based assay

[4] = Dose normalized AUC in Wistar rat at 0.2 to 1 mg/kg, po measured up to 24 hrs by HPLC-MS-MS analysis; assay type: ADME, organism-based; settings: in vivo
[5] = Oral bioavailability in Wistar rat at 0.2 to 1 mg/kg measured up to 24 hrs by HPLC-MS-MS analysis; assay type: ADME, organism-based; settings: in vivo
[6] = system: HT-29; assay: cells; settings: Homo sapiens, HT-29, 96 h
Description: Antiproliferative activity against human HT-29 cells after 96 hrs by crystal violet staining based assay

[7] = Volume of distribution at steady state in Wistar rat at 0.1 to 0.5 mg/kg, iv administered as bolus dose measured up to 24 hrs by HPLC-MS-MS analysis; assay type: ADME, organism-based; settings: in vivo; for Vd: Wistar, read-out: Vdss
[8] = Half life in Wistar rat at 0.1 to 0.5 mg/kg, iv administered as bolus dose measured up to 24 hrs by HPLC-MS-MS analysis; assay type: ADME, organism-based; settings: in vivo; for half-life: Wistar
[9] = Volume of distribution at steady state in Beagle dog at 0.1 to 0.5 mg/kg administered as iv infusion measured up to 24 hrs by HPLC-MS-MS analysis; assay type: ADME, organism-based, Canis lupus familiaris; settings: in vivo, read-out: Vdss
[10] = Half life in Beagle dog at 0.1 to 0.5 mg/kg, administered as iv infusion measured up to 24 hrs by HPLC-MS-MS analysis; assay type: ADME, organism-based, Canis lupus familiaris; settings: in vivo
[11] = Dose normalized AUC in Beagle dog at 0.2 to 1 mg/kg, po measured up to 24 hrs by HPLC-MS-MS analysis; assay type: ADME, organism-based, Canis lupus familiaris; settings: in vivo
[12] = Oral bioavailability in Beagle dog at 0.2 to 1 mg/kg measured up to 24 hrs by HPLC-MS-MS analysis; assay type: ADME, organism-based, Canis lupus familiaris; settings: in vivo
[13] = Blood clearance in Wistar rat at 0.1 to 0.5 mg/kg, iv administered as bolus dose measured up to 24 hrs by HPLC-MS-MS analysis; assay type: ADME, organism-based
[14] = Blood clearance in Beagle dog at 0.1 to 0.5 mg/kg administered as iv infusion measured up to 24 hrs by HPLC-MS-MS analysis; assay type: ADME, organism-based, Canis lupus familiaris

Compound | IC50 [3] | AUC/dose [4] | bioavailability [5] | other results
COc1cc(C(=O)N(C)C)ccc1Nc1nc2ccc(-c3ccc(NC(=O)Cc4ccc(F)cc4)cc3)cn2n1 | 200 nM |  |  | 
N#Cc1ccccc1Nc1nc2ccc(-c3ccc(NC(=O)Cc4ccccc4)cc3)cn2n1 | 695 nM | 0.084 kg·h/L | 12% | 
CC(C)CNc1nccn2c(-c3ccc(C(=O)NC4CC4)cc3)cnc12 |  |  |  | AUC/dose ([4]; BLD = below limit of detection): Bld
O=C(Cc1ccc(F)cc1)Nc1ccc(-c2ccc3nc(Nc4ccc(C(=O)N5CCOCC5)cc4)nn3c2)cc1 | 725 nM |  |  | 
CC(C)CNc1cc(-c2ccccc2)cc2c1ncn2-c1ccc(C(=O)NC2CC2)cc1 | 2480 nM |  |  | 
Cc1cc(-c2cnn3c(NC[C@H]4C[C@@](C)(O)C4)cc(Oc4cccnc4)nc23)ccc1C(=O)NC1CC1 [LUVIXASERTIB] |  |  |  | IC50 [6]: 557 nM
COc1cc(C(=O)N2CC(F)C2)ccc1Nc1nc2ccc(-c3ccc(NC(=O)[C@H](C)c4ccc(F)cc4)cc3)cn2n1 | 57 nM | 1.8 kg·h/L | 55% | clearance [13]: 5.17 mL/min/kg; Vd [7]: 2.1 L/kg; half-life [8]: 5.3 h; clearance [14]: 9.83 mL/min/kg; Vd [9]: 5.2 L/kg; half-life [10]: 7 h; AUC/dose [11]: 0.64 kg·h/L; bioavailability [12]: 39%
COc1cc(C(=O)N2CC(F)C2)ccc1Nc1nc2ccc(-c3ccc(NC(=O)Cc4ccc(F)cc4)cc3)cn2n1 | 37 nM |  |  | 
CC(C)CNc1cc(-c2ccccc2)nn2c(-c3ccc(C(=O)NC4CC4)cc3)cnc12 | 1550 nM |  |  | 
CCC(C(=O)Nc1ccc(-c2ccc3nc(Nc4ccc(S(C)(=O)=O)cc4OC)nn3c2)cc1)c1ccc(F)cc1 (racemic) | 7500 nM |  |  | 
C=C(c1ccc(OC)c(F)c1)c1cc(NCCC(F)(F)F)c2ncc(-c3ccc(C(=O)NC4CC4)c(C)c3)n2n1 |  | 0.47 kg·h/L | 33% | clearance [13]: 14.5 mL/min/kg; Vd [7]: 2.1 L/kg; half-life [8]: 3.1 h; clearance [14]: 56.7 mL/min/kg; Vd [9]: 2.6 L/kg; half-life [10]: 0.84 h; AUC/dose [11]: 0.005 kg·h/L; bioavailability [12]: 1.4%
COc1cc(C(=O)N2CCOCC2)ccc1Nc1nc2ccc(-c3ccc(NC(=O)Cc4ccc(F)cc4)cc3)cn2n1 | 140 nM | 0.81 kg·h/L | 20% | 
Cc1cc(-c2cnc3c(NCC(C)C)nccn23)ccc1C(=O)NC1CC1 |  | 0.22 kg·h/L | 20% | 
CC(C)CNc1nc(-c2ccccc2)nn2c(-c3ccc(C(=O)NC4CC4)cc3)cnc12 | > 10000 nM |  |  | 
Cc1cc(-c2cnc3c(NCCC(F)(F)F)cc(C4(c5cc(F)ccc5O)CC4)nn23)ccc1C(=O)NC1CC1 |  | 0.76 kg·h/L | 45% | clearance [13]: 14.2 mL/min/kg; Vd [7]: 3.1 L/kg; half-life [8]: 4.7 h; clearance [14]: 21.7 mL/min/kg; Vd [9]: 2.1 L/kg; half-life [10]: 2.1 h; AUC/dose [11]: 1.1 kg·h/L; bioavailability [12]: 81%

Now from value to molecule, other results behind:

IC50 [3] | AUC/dose [4] | bioavailability [5] | Compound | other results
26 nM |  |  | O=C(Cc1ccc(F)cc1)Nc1ccc(-c2ccc3nc(Nc4ccc(C(=O)N5CCOCC5)cc4OCC(F)(F)F)nn3c2)cc1 | chromatographic logD [1]: 3.9; solubility [2]: Insoluble
7730 nM |  |  | CC(C)CNc1nc(-c2ccccc2)cc2c(-c3ccc(C(=O)NC4CC4)cc3)cnn12 | 
50 nM | 0.23 kg·h/L | 17% | COc1cc(C(=O)N2C[C@@H]3C[C@H]2CO3)ccc1Nc1nc2ccc(-c3ccc(NC(=O)Cc4ccc(F)cc4)cc3)cn2n1 | 
> 10000 nM |  |  | CC(C)CNc1cccc2c1ncn2-c1ccc(C(=O)NC2CC2)cc1 | 
246 nM | 0.98 kg·h/L | 49% | COc1cc(S(C)(=O)=O)ccc1Nc1nc2ccc(-c3ccc(NC(=O)Cc4ccc(F)cc4)cc3)cn2n1 | 
2300 nM | 0.066 kg·h/L | 9% | COc1ccccc1Nc1nc2ccc(-c3ccc(NC(=O)Cc4ccccc4)cc3)cn2n1 | 
 | 2.4 kg·h/L | 72% | COc1ccc(Oc2cc(NCCC(F)(F)F)c3ncc(-c4ccc(C(=O)NC5CC5)c(C)c4)n3n2)c(F)c1F [BAY-1217389] | Vd [7]: 2.2 L/kg; half-life [8]: 7.8 h; Vd [9]: 3.9 L/kg; half-life [10]: 13 h; AUC/dose [11]: 2.5 kg·h/L; bioavailability [12]: 71%
85 nM | 0.049 kg·h/L |  | COc1cc(C(=O)N2CC3(COC3)C2)ccc1Nc1nc2ccc(-c3ccc(NC(=O)Cc4ccc(F)cc4)cc3)cn2n1 | 
> 10000 nM |  |  | COc1cc(S(C)(=O)=O)ccc1Nc1nc2ccc(-c3ccc(NC(=O)C4(c5ccc(F)cc5)CC4)cc3)cn2n1 | 
5900 nM |  |  | COc1ccccc1Nc1nc2ccc(-c3cc(C)c(O)c(C)c3)cn2n1 | 
 | 4.9 kg·h/L | 94% | CNC(=O)Nc1ccc(-c2cnc3c(NCC(C)C)nccn23)cc1 | 
260 nM | 3.3 kg·h/L | 49% | COc1cc(S(C)(=O)=O)ccc1Nc1nc2ccc(-c3ccc(NC(=O)[C@H](C)c4ccc(F)cc4)cc3)cn2n1 [BAY-1161909] | clearance [13]: 3.17 mL/min/kg; Vd [7]: 2.4 L/kg; half-life [8]: 14 h; clearance [14]: 23.3 mL/min/kg; Vd [9]: 6.7 L/kg; half-life [10]: 6.3 h; AUC/dose [11]: 0.52 kg·h/L; bioavailability [12]: 63%
266 nM | 0.066 kg·h/L | 6.6% | N#Cc1ccccc1Nc1nc2ccc(-c3ccc(NC(=O)Cc4ccc(F)cc4)cc3)cn2n1 | 
270 nM | 4.2 kg·h/L | 49% | COc1cc(N2CCOC2=O)ccc1Nc1nc2ccc(-c3ccc(NC(=O)[C@H](C)c4ccc(F)cc4)cc3)cn2n1 | Vdss ([7]; 24 h): 1.4 L/kg; t1/2 ([8]; 24 h): 8 h
7000 nM |  |  | COc1cc(S(C)(=O)=O)ccc1Nc1nc2ccc(-c3ccc(NC(=O)[C@@H](C)c4ccc(F)cc4)cc3)cn2n1 | 
120 nM | 1.9 kg·h/L | 52% | COc1cc(N2CCOC2=O)ccc1Nc1nc2ccc(-c3ccc(NC(=O)Cc4ccc(F)cc4)cc3)cn2n1 | 
